According to patent US8202527B2, “Method of combating turf pests with a combination of imidacloprid and bifenthrin” (priority 2005, dated 2012):

How the values were obtained:
[1] = tested on: southern chinch bugs (pyrethroid-resistant chinch bugs); assay: Florida Study (a): St. Augustine grass lawns, chinch bug counts; assay type: in vivo, Blissus hirsutus; conditions: for number of southern chinch bugs per ft^2 (per 930 cm^2): bifenthrin 0.2 lb/A, imidacloprid 0.25 lb/A where applied
Protocol: (§1) The following tests were performed to show the efficacy of combinations containing imidacloprid and bifenthrin against pyrethroid-resistant chinch bugs (Blissus hirsutus).
St. Augustine grass lawns, were treated in the summer of 2005 with either bifenthrin at 0.2 lb/A (220 g/ha) or with one of two combination products containing imidacloprid at 0.25 lb/A (280 g/ha) plus bifenthrin at 0.2 lb/A (220 g/ha). At the time of application, populations of chinch bugs were very low. The grass was irrigated and mowed according to local agronomic practices. Because of poor efficacy, imidacloprid is not used commercially for this application and thus was not tested alone in this study.
The numbers of chinch bugs in the lawns were counted at 40 days after application (DAT). After this time period, lawns treated with the combination products containing imidacloprid and bifenthrin had no chinch bugs.

[2] = tested on: chinch bugs collected from Florida Study (b) lawns; assay: University of Florida laboratory bioassay of bifenthrin susceptibility; assay type: in vivo, Blissus hirsutus; conditions: bugs sampled from the treated lawns
Protocol: (§2) Seven St. Augustine grass lawns were treated several times in the summer of 2005 with bifenthrin at 0.2 lb/A (220 g/ha), the highest registered dose of the most widely-used product used for control of southern chinch bugs in Florida.

[3] = tested on: pyrethroid-resistant chinch bugs (southern chinch bugs); assay: Florida Study (b): seven St. Augustine grass lawns, chinch bug counts; assay type: in vivo, Blissus hirsutus
Protocol: as §1, §2
In October of 2005 the lawns were sampled, and the average population of chinch bugs in each lawn was 571 bugs/ft^2 (i.e., 571 bugs per about 930 cm^2), an exceedingly heavy population. After this sampling was done, the seven lawns were treated with a soluble concentrate formulation of a product containing imidacloprid plus bifenthrin at 0.25 lb/A plus 0.2 lb/A (280 g/ha plus 220 g/ha). Six days after treatment, the lawns were again sampled, at which time an average of 6 chinch bugs/ft^2 (i.e., 6 bugs per about 930 cm^2) was observed.

[4] = tested on: Japanese beetle (Popillia japonica); assay: Japanese beetle choice test on treated and untreated turfgrass cores; assay type: in vivo; conditions: 4 days after infestation
Protocol: The following tests were performed to show the efficacy of combinations containing imidacloprid and bifenthrin against Japanese beetle eggs (Popillia japonica).
Turfgrass cores (6.4 cm in diameter, 7 cm deep) were set into tight-fitting paper cups. Four cores were arranged in an ABAB layout in cylindrical plastic cages (60 cm in diameter, 50 cm high) cages with lids that prevented any insects inside from escaping. The cages were sufficiently large to allow adult Japanese beetles to fly and/or crawl unimpeded from one core to another, thereby providing an experimental design that was an accurate measure of which type of turf (untreated or insecticide treated) the adult beetles preferred.
Tests were carried out using the following compositions compared to untreated controls: • Composition (1): Imidacloprid at 0.25 lb/A (about 280 g/ha) plus bifenthrin at 0.2 lb/A (about 220 g/ha) • Composition (2): Imidacloprid at 0.3 lb/A (about 340 g/ha)
Eight replicates of each paired comparison were tested. Gravid adult female Japanese beetles were collected from the field and eight females were placed in each cage. Tests were carried out at 25° C. and with 14 h photophase. One day after infestation, a piece of apple was added to the cage as a food/water source.
At 4 days after infestation, the numbers of adult beetles found in treated and untreated cores were counted. […]

Structure (SMILES) | number of southern chinch bugs per ft^2 (per 930 cm^2) ([1]; 0 DAT) | number of southern chinch bugs per ft^2 (per 930 cm^2) ([1]; 40 DAT) | chinch bugs in the lawns (in words) ([1]; 40 days after application (DAT)) | control of southern chinch bugs (in words) ([1]; overall conclusion from the table data) | times less susceptible than a normal pyrethroid-susceptible population [2] | average population of chinch bugs in each lawn ([3]; October 2005, after several bifenthrin treatments at 0.2 lb/A, before the combination treatment) | control of southern chinch bugs (in words) ([3]; lawns treated several times in summer 2005 at 0.2 lb/A (220 g/ha)) | number of adult beetles found in treated cores ([4]; choice against untreated cores, imidacloprid 0.25 lb/A plus bifenthrin 0.2 lb/A, or imidacloprid alone 0.3 lb/A, 25° C.) | beetle preference between treated and untreated turf (in words) ([4]; paired choice comparison)
Cc1c(COC(=O)[C@@H]2[C@H](/C=C(\Cl)C(F)(F)F)C2(C)C)cccc1-c1ccccc1 (racemic) [Bifenthrin, 2-methylbiphenyl-3-ylmethyl (Z)-(1RS,3RS)-3-(2-chloro-3,3,3-trifluoroprop-1-enyl)-2,2-dimethylcyclopropane-carboxylate] | 0 per ft^2 (per 930 cm^2) | 250 per ft^2 (per 930 cm^2) | economically damaging levels | not effective | 47 times | 571 bugs/ft^2 | exceedingly poor | – | –
O=[N+]([O-])NC1=NCCN1Cc1ccc(Cl)nc1 [Imidacloprid] | – | – | – | – | – | – | – | 3.8 beetles | the beetles show preference
